Data reported in ChEMBL document CHEMBL4428048, “Discovery of Novel Polo-Like Kinase 1 Polo-Box Domain Inhibitors to Induce Mitotic Arrest in Tumor Cells” (J Med Chem, 2016).
Blank lines part the entries; values can stand above or below the compound they belong to. Activity calls are given as the source filed them. No cut-off for these calls is given here.

Assays:
HeLa [1] = assay: Induction of mitotic arrest in human HeLa cells by propidium iodide staining-based FACS analysis; format: functional, cell-based
RKO [2] = assay: Growth inhibition of human RKO cells at 50 uM after 72 hrs by MTT assay relative to control; format: functional; conditions: read-out: GI
U2OS [3] = assay: Growth inhibition of human U2OS cells at 50 uM after 72 hrs by MTT assay relative to control; format: functional; conditions: read-out: GI
HeLa [4] = assay: Induction of mitotic arrest in human HeLa cells assessed as increase in level of 4N DNA cells after 24 hrs by propidium iodide staining-based FACS analysis; format: functional, cell-based
HeLa [5] = assay: Induction of mitotic arrest in human HeLa cells assessed as increase in level of 4N DNA cells at 10 uM after 24 hrs by propidium iodide staining-based FACS analysis; format: functional, cell-based
HeLa [6] = assay: cells; conditions: Homo sapiens, 72 h
Description: Growth inhibition of human HeLa cells after 72 hrs by MTT assay

HeLa [7] = assay: Induction of mitotic arrest in human HeLa cells assessed as increase in level of 4N DNA cells at 30 uM after 24 hrs by propidium iodide staining-based FACS analysis; format: functional, cell-based
U2OS [8] = assay: cells; conditions: Homo sapiens, 72 h
Description: Growth inhibition of human U2OS cells after 72 hrs by MTT assay

HeLa [9] = assay: Growth inhibition of human HeLa cells at 50 uM after 72 hrs by MTT assay relative to control; format: functional; conditions: read-out: GI
U2OS [10] = assay: Growth inhibition of human U2OS cells at 100 uM after 72 hrs by MTT assay relative to control; format: functional; conditions: read-out: GI
HeLa [11] = assay: Growth inhibition of human HeLa cells at 100 uM after 72 hrs by MTT assay relative to control; format: functional; conditions: read-out: GI
RKO [12] = assay: Growth inhibition of human RKO cells at 100 uM after 72 hrs by MTT assay relative to control; format: functional; conditions: read-out: GI
RKO [13] = assay: cells; conditions: Homo sapiens, 72 h
Description: Growth inhibition of human RKO cells after 72 hrs by MTT assay

[14] = biological target: Serine/threonine-protein kinase PLK2 (Homo sapiens, UniProt Q9NYY3); assay: Binding affinity to GST-tagged PLK2 PBD (355 to 685 residues) (unknown origin) by NT-647 dye-based microscale thermophoresis analysis
[15] = biological target: Serine/threonine-protein kinase PLK1 (Homo sapiens, UniProt P53350); assay: Binding affinity to GST-tagged PLK1 PBD (327 to 603 residues) (unknown origin) by NT-647 dye-based microscale thermophoresis analysis
[16] = biological target: Serine/threonine-protein kinase PLK1 (Homo sapiens, UniProt P53350, W414A); assay: Binding affinity to GST-tagged PLK1 PBD W414A mutant (unknown origin) by NT-647 dye-based microscale thermophoresis analysis
HeLa [17] = assay: Induction of mitotic arrest in human HeLa cells assessed as increase in level of 4N DNA cells at 40 uM after 24 hrs by propidium iodide staining-based FACS analysis; format: functional, cell-based
RKO [18] = assay: Growth inhibition of human RKO cells at 20 uM after 72 hrs by MTT assay relative to control; format: functional; conditions: read-out: GI
U2OS [19] = assay: Growth inhibition of human U2OS cells at 20 uM after 72 hrs by MTT assay relative to control; format: functional; conditions: read-out: GI
HeLa [20] = assay: Induction of mitotic arrest in human HeLa cells assessed as increase in level of 4N DNA cells at 5 uM after 24 hrs by propidium iodide staining-based FACS analysis; format: functional, cell-based
HeLa [21] = assay: Induction of mitotic arrest in human HeLa cells assessed as 4N DNA cells at 100 uM after 24 hrs by propidium iodide staining-based FACS analysis relative to control; format: functional

Chain of Serine/threonine-protein kinase PLK2 (Q9NYY3 whole entry, the tested form may be a part): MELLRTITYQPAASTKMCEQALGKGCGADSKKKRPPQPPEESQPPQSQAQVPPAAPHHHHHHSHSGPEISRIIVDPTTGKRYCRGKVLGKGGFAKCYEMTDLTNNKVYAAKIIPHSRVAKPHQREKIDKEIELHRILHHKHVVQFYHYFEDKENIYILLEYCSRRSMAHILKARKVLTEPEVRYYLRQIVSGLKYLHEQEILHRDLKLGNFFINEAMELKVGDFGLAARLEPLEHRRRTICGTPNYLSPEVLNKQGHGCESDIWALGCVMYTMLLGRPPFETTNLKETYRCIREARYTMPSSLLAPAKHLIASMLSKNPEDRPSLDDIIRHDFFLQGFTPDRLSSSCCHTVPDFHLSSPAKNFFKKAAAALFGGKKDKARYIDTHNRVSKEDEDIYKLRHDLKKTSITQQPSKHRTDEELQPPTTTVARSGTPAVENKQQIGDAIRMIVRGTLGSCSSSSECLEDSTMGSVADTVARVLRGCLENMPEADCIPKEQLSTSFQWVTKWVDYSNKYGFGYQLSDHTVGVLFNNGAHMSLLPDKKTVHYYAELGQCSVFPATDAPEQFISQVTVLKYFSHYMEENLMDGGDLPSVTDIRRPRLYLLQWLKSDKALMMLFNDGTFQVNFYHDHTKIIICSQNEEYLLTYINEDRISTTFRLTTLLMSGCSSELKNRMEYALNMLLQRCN
Chain of Serine/threonine-protein kinase PLK1 (Homo sapiens, UniProt P53350, W414A) (P53350 2-603 W414A limits assumed): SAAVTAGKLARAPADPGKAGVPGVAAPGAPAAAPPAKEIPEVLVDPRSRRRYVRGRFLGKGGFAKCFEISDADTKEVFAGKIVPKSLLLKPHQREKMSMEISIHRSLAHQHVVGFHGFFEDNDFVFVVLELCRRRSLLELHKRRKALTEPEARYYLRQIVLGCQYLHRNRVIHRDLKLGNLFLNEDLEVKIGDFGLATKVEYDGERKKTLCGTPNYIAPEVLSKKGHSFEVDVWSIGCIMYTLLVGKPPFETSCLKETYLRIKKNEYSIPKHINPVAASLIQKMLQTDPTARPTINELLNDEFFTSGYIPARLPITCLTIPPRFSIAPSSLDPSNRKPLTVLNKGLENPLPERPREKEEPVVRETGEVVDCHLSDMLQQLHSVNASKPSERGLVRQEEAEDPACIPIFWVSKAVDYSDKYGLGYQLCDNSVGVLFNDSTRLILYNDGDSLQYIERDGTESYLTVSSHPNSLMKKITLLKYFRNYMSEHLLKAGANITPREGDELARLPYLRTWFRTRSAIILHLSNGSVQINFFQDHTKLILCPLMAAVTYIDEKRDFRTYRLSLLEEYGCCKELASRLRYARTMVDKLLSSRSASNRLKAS
Chain of Serine/threonine-protein kinase PLK1 (Homo sapiens, UniProt P53350) (P53350 whole entry, the tested form may be a part): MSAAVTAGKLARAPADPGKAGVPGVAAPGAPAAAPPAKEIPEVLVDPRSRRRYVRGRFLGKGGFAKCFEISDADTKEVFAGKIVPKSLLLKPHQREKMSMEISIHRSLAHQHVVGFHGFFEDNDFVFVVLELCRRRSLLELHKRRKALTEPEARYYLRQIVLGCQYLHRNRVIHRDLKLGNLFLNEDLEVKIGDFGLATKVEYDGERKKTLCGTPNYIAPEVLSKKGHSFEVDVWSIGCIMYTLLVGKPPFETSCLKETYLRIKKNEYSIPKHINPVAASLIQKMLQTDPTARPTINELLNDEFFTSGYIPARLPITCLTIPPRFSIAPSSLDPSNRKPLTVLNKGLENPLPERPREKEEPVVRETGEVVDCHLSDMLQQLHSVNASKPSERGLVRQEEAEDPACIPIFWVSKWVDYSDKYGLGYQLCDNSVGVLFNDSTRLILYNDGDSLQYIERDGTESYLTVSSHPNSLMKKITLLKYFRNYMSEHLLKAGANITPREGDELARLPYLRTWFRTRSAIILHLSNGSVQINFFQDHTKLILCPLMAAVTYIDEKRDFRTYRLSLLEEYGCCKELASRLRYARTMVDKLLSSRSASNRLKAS

SMILES: CCn1c2ccccc2c2cc(/C=N/NC(=O)c3ccccc3[N+](=O)[O-])ccc21
- inhibition of growth at 50 µM (RKO [2]): 43%
- inhibition of growth at 50 µM (U2OS [3]): 41.7%
- EC50 (HeLa [4]): 5.3 µM
- Activity (HeLa [5]): Active
- EC50 (HeLa [6]): 15 µM

SMILES: CCN(CC)c1ccc(NC(=O)/C=C/c2cccc3ccccc23)cc1
- inhibition of growth at 50 µM (RKO [2]): 34%
- Activity (HeLa [7]): Active
- EC50 (U2OS [8]): 18.1 µM
- inhibition of growth at 50 µM (HeLa [9]): 31.2%

SMILES: Cc1ccc2nc(C)cc(SCC(=O)N/N=C/c3ccc(Cl)cc3)c2c1
- inhibition of growth at 100 µM (U2OS [10]): 25.5%
- inhibition of growth at 100 µM (HeLa [11]): 36.7%
- EC50 (HeLa [4]): 18.7 µM
- Activity (HeLa [7]): Active
- inhibition of growth at 100 µM (RKO [12]): 34%

SMILES: CCn1c2ccccc2c2cc(/C=N/NC(=O)c3cccc(Cl)c3)ccc21
- inhibition of growth at 50 µM (U2OS [3]): 42.2%
- EC50 (HeLa [4]): 4.4 µM
- Activity (HeLa [5]): Active
- EC50 (RKO [13]): 10 µM
- EC50 (HeLa [6]): 15.6 µM

SMILES: CCc1ccc(/C=N/NC(=O)c2sc3cc(Cl)ccc3c2Cl)s1
- EC50 (HeLa [4]): 8.6 µM
- Activity (HeLa [7]): Active

SMILES: O=C(CCn1c2ccccc2c2ccccc21)N/N=C/c1cc(Cl)cc(Cl)c1
- inhibition of growth at 50 µM (U2OS [3]): 48.8%
- EC50 (HeLa [4]): 20.4 µM
- Activity (HeLa [7]): Active
- Kd [14]: 210 µM
- EC50 (RKO [13]): 19.2 µM
- inhibition of growth at 50 µM (HeLa [9]): 45.7%

SMILES: CCCc1oc2ccc(NS(=O)(=O)c3cccs3)cc2c1C(=O)OCC
- inhibition of growth at 50 µM (RKO [2]): 39.4%
- Activity (HeLa [17]): Active
- EC50 (HeLa [4]): 44.8 µM
- inhibition of growth at 50 µM (HeLa [9]): 31.8%

SMILES: CC1=CC(=O)C(C(C)C)=C/C1=N/OC(=O)c1ccccc1C
- Kd [14]: 87.3 µM
- Activity (HeLa [21]): 36%

Now from value to compound, other results behind:

- EC50 (HeLa [1]): 15 µM
SMILES: CC1=C/C(=N/OC(=O)c2ccccc2C)C(C)=CC1=O

- EC50 (HeLa [4]): 25.6 µM
- Kd [14]: 197 µM
- Kd [15]: 44.2 µM
- Kd [16]: 412 µM
- EC50 (U2OS [8]): 37.8 µM
SMILES: Cc1ccccc1OCC(=O)N/N=C/c1ccc2c(c1)OCCO2
- inhibition of growth at 100 µM (HeLa [11]): 40.2%
- Activity (HeLa [7]): Active
- inhibition of growth at 100 µM (RKO [12]): 35.3%

- EC50 (HeLa [6]): 2.6 µM
SMILES: O=C(N/N=C/c1ccc(Br)cc1)c1n[nH]c2c1CCCC2
- inhibition of growth at 20 µM (RKO [18]): 37%
- inhibition of growth at 20 µM (U2OS [19]): 59.8%
- Activity (HeLa [20]): Active

- EC50 (HeLa [4]): 21.1 µM
- Kd [14]: 159 µM
SMILES: Cc1ccc(/C(=N/S(=O)(=O)c2ccccc2)NC(=S)Nc2ccc([N+](=O)[O-])cc2)cc1
- Activity (HeLa [4]): Dose-dependent effect
- Activity (HeLa [7]): Active
